Here are results for two compounds from patent US5753678A, “Heterocyclic compounds” (Novo Nordisk A/S, priority 1995, dated 1998).

Counter-ions that a name gives are not always drawn.

The test system of the assay is histamine induced paw oedema. Briefly: Histamine induced paw oedema. It is filed as in vivo, male Sprague-Dawley rats. Conditions: at 1 mg/kg, intraperitoneally 15 minutes before the anesthetics, rats, paw swelling 20 minutes after histamine. The protocol: II. Histamine induced paw oedema Values for in vivo inhibition of […] induced oedema for the compounds of the present invention were assessed in rats essentially as described by Amann et al. (Europ. J. Pharmacol. 30 279, 227-231, 1995). In brief 250-300 g male Sprague-Dawley rats were […] pentobarbital sodium, and placed on a 32 degree heated table. Ten minutes later histamine (50 microliter, 3 mg/ml) was injected in the right hind paw and 20 minutes hereafter the paw swelling was determined by water plethysmography (Ugo Basile). Test compounds were administered intraperitoneally at 15 minutes before the anesthetics. |Inhibition of histamine induced oedema at 1 mg/kg

Take `Cl.O=C(O)[C@@H]1CCCN(CCC=C2c3ccccc3OCOc3ccccc32)C1` [Example 2, (R)-1-(3-(12H-Dibenzo[d,g][1,3]dioxocin-12-ylidene)-1-propyl)-3-piperidinecarboxylic acid hydrochloride]: the “% oedema inhibition” value is given as 52%.
`CCOC(=O)[C@@H]1CCCN(CCC=C2c3ccccc3OCOc3ccccc32)C1` [Example 3, (R)-1-(3-(12H-Dibenzo[d,g][1,3]doxocin-12-ylidene)-1-propyl)-3-piperidinecarboxylic acid ethyl ester hydrochloride]: the “% oedema inhibition” value worked out at 33%.
